Test results from article PMC8617031, “Development of a BCL-xL and BCL-2 dual degrader with improved anti-leukemic activity,” (Nature Communications, 2021).
Where “and” joins values, the source holds several entries; their conditions need not be identical. Equal values may be shown once. Read-outs that look alike come from different tables or passages of the source.

What was measured:
His-tagged BCL-2 = target: T1, His-tagged BCL-2 (Homo sapiens, UniProt P10415); assay: AlphaScreen competitive binary binding, BCL-2 (biotin-BIM peptide); details: for Alpha signal normalised to Maximum/Minimum (inhibition): in % (unit assumed)
T1 construct: purchased Sigma-Aldrich SRP0186
T1 sequence (P10415 whole entry): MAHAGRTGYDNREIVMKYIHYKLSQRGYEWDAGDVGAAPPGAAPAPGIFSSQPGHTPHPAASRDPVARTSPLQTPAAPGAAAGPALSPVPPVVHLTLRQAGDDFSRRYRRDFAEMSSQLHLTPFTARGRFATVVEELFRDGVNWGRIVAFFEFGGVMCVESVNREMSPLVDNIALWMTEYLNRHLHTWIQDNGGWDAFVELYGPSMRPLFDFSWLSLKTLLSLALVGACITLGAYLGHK
Summary of the method: (§1)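 His-tagged BCL-xL (0.5 nM) with 2 nM biotin-BAD peptide, or BCL-2 (1 nM) with 10 nM biotin-BIM peptide, was incubated 2 h with serially diluted compound in HEPES pH 7.5 buffer containing NaCl, BSA and Tween-80. AlphaScreen signal came from His-acceptor and streptavidin-donor beads at 20 µg/ml each. Ki was fitted by competitive binding using measured Kd per protein–peptide pair.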

His-tagged BCL-xL = target: T2, His-tagged BCL-xL (Homo sapiens, UniProt Q07817); assay: AlphaScreen competitive binary binding, BCL-xL (biotin-BAD peptide)
T2 construct: purchased Sigma-Aldrich SRP0187
T2 sequence (Q07817 whole entry): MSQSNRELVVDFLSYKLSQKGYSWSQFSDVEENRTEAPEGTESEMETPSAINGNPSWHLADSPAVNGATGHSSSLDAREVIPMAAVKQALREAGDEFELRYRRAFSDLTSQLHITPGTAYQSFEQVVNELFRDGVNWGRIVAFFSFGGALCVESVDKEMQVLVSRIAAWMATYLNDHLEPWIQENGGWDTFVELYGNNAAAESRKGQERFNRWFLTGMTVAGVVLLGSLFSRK
Summary of the method: as §1

Cc1ncsc1-c1ccc([C@H](C)NC(=O)[C@@H]2C[C@@H](O)CN2C(=O)[C@@H](NC(=O)CCCCCC(=O)N2CCN(CC[C@H](CSc3ccccc3)Nc3ccc(S(=O)(=O)NC(=O)c4ccc(N5CCN(CC6=C(c7ccc(Cl)cc7)CCC(C)(C)C6)CC5)cc4)cc3S(=O)(=O)C(F)(F)F)CC2)C(C)(C)C)cc1 [DT2216]
Alpha signal normalised to Maximum/Minimum (inhibition) (His-tagged BCL-2; BCL-2 Rep-1, 0.000305176 uM, 0.000305176 µM): 11.9513
inhibition at 0.000305176 µM (His-tagged BCL-2; BCL-2 Rep-1, 0.000305176 uM, read-out: Alpha signal normalised to Maximum/Minimum (inhibition)): 15.4%
Alpha signal normalised to Maximum/Minimum (inhibition) (His-tagged BCL-2; BCL-2 Rep-1, 0.00488281 uM, 0.00488281 µM): 42.8592
inhibition at 0.00488281 µM (His-tagged BCL-2; BCL-2 Rep-1, 0.00488281 uM, read-out: Alpha signal normalised to Maximum/Minimum (inhibition)): 43%
Alpha signal normalised to Maximum/Minimum (inhibition) (His-tagged BCL-2; BCL-2 Rep-1, 0.0195312 uM, 0.0195312 µM): 72.1054
inhibition at 0.0195312 µM (His-tagged BCL-2; BCL-2 Rep-1, 0.0195312 uM, read-out: Alpha signal normalised to Maximum/Minimum (inhibition)): 69.3%
Alpha signal normalised to Maximum/Minimum (inhibition) (His-tagged BCL-2; BCL-2 Rep-1, 0.078125 uM, 0.078125 µM): 96.9363
inhibition at 0.078125 µM (His-tagged BCL-2; BCL-2 Rep-1, 0.078125 uM, read-out: Alpha signal normalised to Maximum/Minimum (inhibition)): 96.6%
Alpha signal normalised to Maximum/Minimum (inhibition) (His-tagged BCL-2; BCL-2 Rep-1, 0.3125 uM, 0.3125 µM): 99.419
inhibition at 0.3125 µM (His-tagged BCL-2; BCL-2 Rep-1, 0.3125 uM, read-out: Alpha signal normalised to Maximum/Minimum (inhibition)): 100%
Alpha signal normalised to Maximum/Minimum (inhibition) (His-tagged BCL-2; BCL-2 Rep-1, 1.25 uM, 1.25 µM): 99.6178
inhibition at 1.25 µM (His-tagged BCL-2; BCL-2 Rep-1, 1.25 uM, read-out: Alpha signal normalised to Maximum/Minimum (inhibition)): 99.6%
Alpha signal normalised to Maximum/Minimum (inhibition) (His-tagged BCL-2; BCL-2 Rep-1, 5 uM, 5 µM): 99.391
inhibition at 5 µM (His-tagged BCL-2; BCL-2 Rep-1, 5 uM, read-out: Alpha signal normalised to Maximum/Minimum (inhibition)): 100%
Alpha signal (raw counts) (His-tagged BCL-2; BCL-2 Rep-2, 0.00488281 uM): 457290 and 444842
Alpha signal normalised to Maximum/Minimum (inhibition) (His-tagged BCL-2; BCL-2 Rep-2, 0.0195312 uM, 0.0195312 µM): 73.927
inhibition at 0.0195312 µM (His-tagged BCL-2; BCL-2 Rep-2, 0.0195312 uM, read-out: Alpha signal normalised to Maximum/Minimum (inhibition)): 72.6%
Alpha signal normalised to Maximum/Minimum (inhibition) (His-tagged BCL-2; BCL-2 Rep-2, 0.078125 uM, 0.078125 µM): 98.4863
inhibition at 0.078125 µM (His-tagged BCL-2; BCL-2 Rep-2, 0.078125 uM, read-out: Alpha signal normalised to Maximum/Minimum (inhibition)): 98.1%
Alpha signal normalised to Maximum/Minimum (inhibition) (His-tagged BCL-2; BCL-2 Rep-2, 0.3125 uM, 0.3125 µM): 98.9063
inhibition at 0.3125 µM (His-tagged BCL-2; BCL-2 Rep-2, 0.3125 uM, read-out: Alpha signal normalised to Maximum/Minimum (inhibition)): 98.5%
Alpha signal normalised to Maximum/Minimum (inhibition) (His-tagged BCL-2; BCL-2 Rep-2, 1.25 uM, 1.25 µM): 100.524
inhibition at 1.25 µM (His-tagged BCL-2; BCL-2 Rep-2, 1.25 uM, read-out: Alpha signal normalised to Maximum/Minimum (inhibition)): 101%
Alpha signal normalised to Maximum/Minimum (inhibition) (His-tagged BCL-2; BCL-2 Rep-2, 5 uM, 5 µM): 100.141
inhibition at 5 µM (His-tagged BCL-2; BCL-2 Rep-2, 5 uM, read-out: Alpha signal normalised to Maximum/Minimum (inhibition)): 99.9%
Alpha signal (raw counts) (His-tagged BCL-2; BCL-2 Rep-2, plate row B, 5 uM): 15606 and 13933
Alpha signal (raw counts) (His-tagged BCL-2; BCL-2 Rep-2, plate row C, 1.25 uM): 9913 and 10759
Alpha signal (raw counts) (His-tagged BCL-2; BCL-2 Rep-2, plate row D, 0.3125 uM): 27814 and 24179
Alpha signal (raw counts) (His-tagged BCL-2; BCL-2 Rep-2, plate row E, 0.078125 uM): 30701 and 27663
Alpha signal (raw counts) (His-tagged BCL-2; BCL-2 Rep-2, plate row F, 0.0195312 uM): 242422 and 231401
Alpha signal (raw counts) (His-tagged BCL-2; BCL-2 Rep-2, plate row H, 0.0012207 uM): 765240 and 763074
Alpha signal (raw counts) (His-tagged BCL-2; BCL-2 Rep-2, plate row I, 0.000305176 uM): 762866 and 759346
Alpha signal (raw counts) (His-tagged BCL-2; BCL-2 Rep-2, plate row J, 7.62939e-5 uM): 726537 and 792609
Alpha signal (raw counts) (His-tagged BCL-2; BCL-2 Rep-2, plate row K, 1.90735e-5 uM): 756626 and 814053
IC50 (His-tagged BCL-xL; BCL-xL Rep-1): 120 nM
Ki (His-tagged BCL-xL; BCL-xL Rep-1): 5.4 nM
Alpha signal normalised to Maximum/Minimum (inhibition) (His-tagged BCL-xL; BCL-xL Rep-1, 0.000305176 uM, 0.000305176 µM): 20.1617
inhibition at 0.000305176 µM (His-tagged BCL-xL; BCL-xL Rep-1, 0.000305176 uM, read-out: Alpha signal normalised to Maximum/Minimum (inhibition)): 18.1%
Alpha signal normalised to Maximum/Minimum (inhibition) (His-tagged BCL-xL; BCL-xL Rep-1, 0.0012207 uM, 0.0012207 µM): 17.8409
inhibition at 0.0012207 µM (His-tagged BCL-xL; BCL-xL Rep-1, 0.0012207 uM, read-out: Alpha signal normalised to Maximum/Minimum (inhibition)): 21.3%
Alpha signal normalised to Maximum/Minimum (inhibition) (His-tagged BCL-xL; BCL-xL Rep-1, 0.00488281 uM, 0.00488281 µM): 23.949
inhibition at 0.00488281 µM (His-tagged BCL-xL; BCL-xL Rep-1, 0.00488281 uM, read-out: Alpha signal normalised to Maximum/Minimum (inhibition)): 23.9%
Alpha signal normalised to Maximum/Minimum (inhibition) (His-tagged BCL-xL; BCL-xL Rep-1, 0.0195312 uM, 0.0195312 µM): 38.2381
inhibition at 0.0195312 µM (His-tagged BCL-xL; BCL-xL Rep-1, 0.0195312 uM, read-out: Alpha signal normalised to Maximum/Minimum (inhibition)): 39%
Alpha signal normalised to Maximum/Minimum (inhibition) (His-tagged BCL-xL; BCL-xL Rep-1, 0.078125 uM, 0.078125 µM): 43.5761
inhibition at 0.078125 µM (His-tagged BCL-xL; BCL-xL Rep-1, 0.078125 uM, read-out: Alpha signal normalised to Maximum/Minimum (inhibition)): 42.3%
Alpha signal normalised to Maximum/Minimum (inhibition) (His-tagged BCL-xL; BCL-xL Rep-1, 0.3125 uM, 0.3125 µM): 88.5079
inhibition at 0.3125 µM (His-tagged BCL-xL; BCL-xL Rep-1, 0.3125 uM, read-out: Alpha signal normalised to Maximum/Minimum (inhibition)): 85.7%
Alpha signal normalised to Maximum/Minimum (inhibition) (His-tagged BCL-xL; BCL-xL Rep-1, 1.25 uM, 1.25 µM): 97.7177
inhibition at 1.25 µM (His-tagged BCL-xL; BCL-xL Rep-1, 1.25 uM, read-out: Alpha signal normalised to Maximum/Minimum (inhibition)): 96.9%
Alpha signal normalised to Maximum/Minimum (inhibition) (His-tagged BCL-xL; BCL-xL Rep-1, 5 uM, 5 µM): 99.5511
inhibition at 5 µM (His-tagged BCL-xL; BCL-xL Rep-1, 5 uM, read-out: Alpha signal normalised to Maximum/Minimum (inhibition)): 99.5%
Alpha signal (raw counts) (His-tagged BCL-xL; BCL-xL Rep-1, plate row B, 5 uM): 27230 and 26015
Alpha signal (raw counts) (His-tagged BCL-xL; BCL-xL Rep-1, plate row C, 1.25 uM): 64394 and 52279
Alpha signal (raw counts) (His-tagged BCL-xL; BCL-xL Rep-1, plate row D, 0.3125 uM): 224421 and 184214
Alpha signal (raw counts) (His-tagged BCL-xL; BCL-xL Rep-1, plate row E, 0.078125 uM): 846185 and 827887
